Data: PMC4861708 (Frontiers in Cell and Developmental Biology, 2016)
Converted amounts (≈) assume the structure as drawn. Where a SMILES comes first, the peptide text is derived from it. [ ]: non-standard residue; d: D form. The star is where a group is joined. Orn(α-tetramethylguanidino) = CN(C)C(=N[C@@H](CCCN)C(=O)*)N(C)C; Orn = NCCC[C@H](N)C(=O)O

Experiments:
[1] = test system: E. coli DSM 1103 (ATCC 25922); assay type: cell-based, Escherichia coli; conditions: DSM 1103, 24 h
Experimental: (§1) MICs of P. aeruginosa strains DSM 1117 (ATCC 27853), DSM 3227 (ATCC 19429), and DSM 9644 were determined in a microdilution broth assay using 50 or 100% MHB (11.5 and 23 g/L MHB, respectively) whereas MICs of E. coli DSM 1103 (ATCC 25922) and K. pneumoniae DSM 681 (ATCC 10031) were determined in TSB (30 g/L TSB). Peptides (1 g/L in water) were serially two-fold diluted in a 96-well microtiter plate (PS, sterile, flat bottom) in 50 μL of the corresponding medium to final concentrations of 512–4 μg/mL. Bacteria were grown in nutrient broth overnight and diluted to a cell concentration of 1.5 × 10^7 cells/mL in the corresponding medium. Cell densities were determined by using the McFarland standard as reference. An aliquot (50 μL) of the cell culture was added to each well and incubated (37°C, 24 h). The OD595 was determined in a SpectraMax 340PC (Molecular Devices, Sunnyvale, USA). Additionally, MIC values were also determined for high bacteria densities (5 × 10^8 cells/mL) corresponding to the conditions used for TEM, as described above.

[2] = test system: K. pneumoniae DSM 681 (ATCC 10031); assay type: cell-based, Klebsiella pneumoniae; conditions: DSM 681, 24 h
Experimental: as §1

[3] = test system: P. aeruginosa DSM 1117 (ATCC 27853); design: method as in Bluhm et al., 2015; conditions: 50% MHB; ref Bluhm et al., 2015; cited from earlier work
[4] = test system: Primary rat cardiomyocytes; assay: in vitro; assay type: cell-based; conditions: 24 h
Experimental: (§2) Human embryonic kidney (HEK293) and HeLa cells were cultured in Dulbecco's modified Eagle's/Ham's F-12 medium [DMEM/F-12 (1:1)] supplemented with FBS (10% v/v), penicillin, and streptomycin (1000 units each). Primary rat cardiomyocytes (Innoprot, Elexalde Derio, Spain) were grown in medium supplemented with FBS (20% v/v), horse serum (5% v/v), L-glutamine (2 mmol/L), sodium pyruvate (2 mmol/L), MEM non-essential amino acids (Gibco, 0.1 mmol/L), penicillin, and streptomycin (1000 units each). Surfaces for cardiomyocyte growth were coated with attachment factor first. Cells (20,000/well) were seeded into a 96-well plate (PS, sterile, flat bottom), incubated for 24 h (37°C, 5% CO2), and washed twice with PBS (100 μl/well) prior to adding colorless medium (88 μL) and peptide solution (12 μL; 5, 2.5, 1.25, […], and 0.625 g/L in PBS). Positive controls were triton X-100 (1%, v/v) and melittin (60 mg/L) as lytic peptide, whereas PBS (12%, v/v) served as negative control. After an incubation period of 24 h, supernatant (25 μL) was mixed with lactate dehydrogenase (LDH) substrate (175 μL; 0.57 mmol/L sodium pyruvate, 0.24 mmol/L NADH disodium salt, 32 mmol/L potassium dihydrogen phosphate, 66 mmol/L dipotassium phosphate) in 96-well plates (PS, sterile, flat bottom). Absorbance was recorded at 340 nm every 3 min for 30 min on the Paradigm microplate reader. Due to the total release of LDH upon triton X-100 treatment, the control contained high LDH concentrations resulting in a fast substrate turnover that was only linear for the first 6 min.
(§3) The MTT cell viability assay relied on the same cell culture. Remaining medium was replaced by a mixture of fresh colorless medium (100 μL) and MTT (10 μL; 5 g/L in PBS) and incubated for 4 h (37°C, 5% CO2). A solution of sodium dodecyl sulfate (100 μL; 10%, w/v) dissolved in hydrochloric acid (10 mmol/L) was added, incubated (16 h), and the absorbance recorded at 590 nm relative to the reference at 650 nm (Paradigm microplate reader). The relative cell viability was calculated by [(ODPeptide − ODTriton)/(ODPBS − ODTriton)] × 100% and half-maximal inhibitory concentrations (IC50) with an Excel-template from cell biology protocols (www.sciencegateway.org/ protocols/cellbio/drug/hcic50.htm). For statistical analysis an unpaired t-test was applied using GraphPad Prism 5.0.

in vitro [5] = assay type: cell-based, human; conditions: human
Experimental: as §2, §3

HEK293 cells = assay: in vitro; assay type: cell-based, human; conditions: 24 h
Experimental: as §2, §3

in vitro [6] = assay type: cell-based; conditions: human
Experimental: as §2, §3

HeLa cells = assay: in vitro; assay type: cell-based; conditions: 24 h
Experimental: as §2, §3

in vitro [7] = conditions: mouse, mouse serum, Half-life time mouse serum, 37°C
Experimental: Peptide solutions (1 g/L) were added to mouse serum to obtain final concentrations of 70 mg/L peptide and incubated under constant shaking at 37°C. After 0, 1, 2, 3, and 6 h aliquots (95 μL) were precipitated with aqueous TCA (25 μL, 15% w/v), incubated for 10 min on ice, and centrifuged (5 min, 12,000 × g, Eppendorf mini spin centrifuge). An aliquot of the supernatant (95 μL) was neutralized with sodium hydroxide (8 μL, 1 mol/L) and diluted with aqueous acetonitrile solution (3% acetonitrile, 0.1% TFA; 200 μL). Peptides were quantified by the peak areas obtained by analytical RP-HPLC on a Jupiter C18-column (ID: 2 mm) using a linear aqueous acetonitrile gradient with 0.1% (v/v) TFA (absorbance recorded at 214 nm). Peak areas of all time points were normalized to the initial peak area obtained after “0 min incubation” (= 100%). Experiments were carried out as triplicates in parallel and half-life times were calculated using GraphPad Prism 5.0.

P. aeruginosa elastase [8] = assay: P. aeruginosa elastase (0.012 U/μL) in Tris-HCl (5 mmol/L, pH 8.3); conditions: 37°C, up to 6 h
P. aeruginosa elastase [9] = biological target: T1, P. aeruginosa elastase (Pseudomonas aeruginosa, UniProt P14756); assay: Elastase assay (proteolytic stability); assay type: in vitro ADME; conditions: Pseudomonas aeruginosa; 0.5 g/L peptide, elastase 12 units/mL, Tris-HCl pH 8.3, 37°C; read-out: Half-life time with Pseudomonas elastase
T1 construct: purchased Merck (Darmstadt, Germany)
Experimental: A stock solution of P. aeruginosa elastase (0.26 U/μL) was prepared in Tris-HCl (5 mmol/L, pH 8.3) and stored at −80°C. Peptides (0.5 g/L in 5 mmol/L Tris-HCl, pH 8.3) were incubated with elastase (0.012 U/μL) at 37°C under constant shaking (450 rpm) for 0, 0.5, 2, 4, and 6 h. Aliquots (10.5 μL) were precipitated with a mixture of acetonitrile and ethanol (1:1 v/v) containing 0.1% TFA (21 μL), centrifuged, the supernatant transferred into a new tube, and dried in vacuum. Samples were dissolved in aqueous acetonitrile (3% v/v) containing TFA (0.1% v/v) and analyzed by RP-HPLC using the conditions described above.

T1 sequence (P14756 198-498): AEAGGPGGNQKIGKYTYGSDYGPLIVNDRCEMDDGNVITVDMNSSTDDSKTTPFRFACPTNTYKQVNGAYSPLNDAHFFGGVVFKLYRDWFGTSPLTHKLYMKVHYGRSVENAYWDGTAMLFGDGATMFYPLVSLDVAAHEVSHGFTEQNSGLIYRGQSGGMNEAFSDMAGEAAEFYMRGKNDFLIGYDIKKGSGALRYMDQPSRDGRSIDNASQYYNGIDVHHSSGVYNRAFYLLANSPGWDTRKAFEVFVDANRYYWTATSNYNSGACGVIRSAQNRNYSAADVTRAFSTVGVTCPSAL

For `CC(C)C[C@H](NC(=O)[C@H](CCCNC(=N)N)NC(=O)[C@@H]1CCCN1C(=O)[C@H](Cc1c[nH]cn1)NC(=O)[C@@H]1CCCN1C(=O)[C@@H]1CCCN1C(=O)[C@H](CCCNC(=N)N)NC(=O)[C@@H]1CCCN1C(=O)[C@H](CCCNC(=N)N)NC(=O)[C@@H]1CCCN1C(=O)[C@H](CCCN)NC(=O)[C@H](Cc1ccc(O)cc1)NC(=O)[C@@H](NC(=O)[C@@H]1CCCN1C(=O)[C@H](CCCNC(=N)N)NC(=O)[C@H](CCCN)NC(=O)[C@H](Cc1c[nH]c2ccccc12)NC(=O)[C@H](CCCN)N=C(N(C)C)N(C)C)C(C)C)C(=O)O` [Api760, gu-OWORPVYOPRPRPPHPRL-OH, reference compound] ({Orn(α-tetramethylguanidino)}-W[Orn]RPVY[Orn]PRPRPPHPRL-OH), the “MIC E. coli ATCC 25922” value [1] is listed as 8 µg/mL (≈ 3.38 µM), the “MIC K. pneumoniae DSM 681” value [2] is listed as 8 µg/mL (≈ 3.38 µM) and the “times more active than Api137 against P. aeruginosa” value [3] is listed as 16.
In the case of `CC[C@H](C)[C@H](NC(=O)[C@H](CCCN)N=C(N(C)C)N(C)C)C(=O)N[C@@H](CCCN)C(=O)N[C@H](C(=O)N[C@@H](CCCN)C(=O)N[C@H](C(=O)N[C@@H](CCCN)C(=O)N[C@@H](CCCNC(=N)N)C(=O)N1CCC[C@H]1C(=O)N[C@H](C(=O)N[C@@H](Cc1ccc(O)cc1)C(=O)N[C@@H](CCCN)C(=O)N1CCC[C@H]1C(=O)N[C@@H](CCCNC(=N)N)C(=O)N1CCC[C@H]1C(=O)N[C@@H](CCCNC(=N)N)C(=O)N1CCC[C@H]1C(=O)N1CCC[C@H]1C(=O)N[C@@H](Cc1c[nH]cn1)C(=O)N1CCC[C@H]1C(=O)N[C@@H](CCCNC(=N)N)C(=O)N[C@@H](CC(C)C)C(=O)O)C(C)C)[C@@H](C)CC)[C@@H](C)CC` [Api796, GuO(IO)3RPVYOPRPRPPHPRL] ({Orn(α-tetramethylguanidino)}-I[Orn]I[Orn]I[Orn]RPVY[Orn]PRPRPPHPRL-OH), the “MIC E. coli ATCC 25922” value [1] is reported as 8 µg/mL (≈ 2.91 µM), the “MIC K. pneumoniae DSM 681” value [2] is reported as 16 µg/mL (≈ 5.83 µM) and the “IC50 on cell viability” value [4] is reported as >0.6 g/L. For the same compound, the viability at 24 h, 0.6 g/L (in vitro [5]) was ~60%, the “IC50 on cell viability” value (HEK293 cells) was >0.6 g/L and the viability at 24 h, 0.6 g/L (in vitro [6]) was 61 ± 14%. The “IC50 on cell viability” value (HeLa cells) was >0.6 g/L and the half-life at 70 mg/L (in vitro [7]) was 249 min.
With `CC(C)C[C@H](NC(=O)[C@H](CCCNC(=N)N)NC(=O)[C@@H]1CCCN1C(=O)[C@H](Cc1c[nH]cn1)NC(=O)[C@@H]1CCCN1C(=O)[C@@H]1CCCN1C(=O)[C@H](CCCNC(=N)N)NC(=O)[C@@H]1CCCN1C(=O)[C@H](CCCNC(=N)N)NC(=O)[C@@H]1CCCN1C(=O)[C@H](CCCN)NC(=O)[C@H](Cc1ccc(O)cc1)NC(=O)[C@@H](NC(=O)[C@@H]1CCCN1C(=O)[C@H](CCCNC(=N)N)NC(=O)[C@H](CCCN)NC(=O)[C@H](Cc1c[nH]c2ccccc12)NC(=O)[C@H](CCCN)NC(=O)[C@H](Cc1c[nH]c2ccccc12)NC(=O)[C@H](CCCN)N=C(N(C)C)N(C)C)C(C)C)C(=O)O` [Api793, guO(WO)2RPVYOPRPRPPHPRL] ({Orn(α-tetramethylguanidino)}-W[Orn]W[Orn]RPVY[Orn]PRPRPPHPRL-OH) the “MIC E. coli ATCC 25922” value [1] was 8 µg/mL (≈ 3 µM), the “MIC K. pneumoniae DSM 681” value [2] was 16 µg/mL (≈ 6 µM) and the “IC50 on cell viability” value [4] was >0.6 g/L. For the same compound, the “IC50 on cell viability” value (HEK293 cells) was 0.64 ± 0.05 g/L (≈ 240 µM), the “IC50 on cell viability” value (HeLa cells) was 0.64 ± 0.15 g/L (≈ 240 µM) and the half-life at 70 mg/L (in vitro [7]) was 246 min.
For gu-O(IO)2RPVYOPRPRPPHPRL-OH, the not cleaved (P. aeruginosa elastase [8]) was 92 ± 4% detected after 30 min and for all later time points (6 h).
In the case of gu-ONNRPVYIPRPRPPHPRL-OH, the not cleaved (P. aeruginosa elastase [8]) is reported as “fully recovered after an incubation period of 6 h”.
With `CC[C@H](C)[C@H](NC(=O)[C@H](CCCCN)NC(=O)[C@H](CCC(=O)O)NC(=O)[C@H](CCCCN)NC(=O)[C@H](CO)NC(=O)[C@H](CCCCN)NC(=O)[C@H](CCCNC(=N)N)NC(=O)[C@H](Cc1ccccc1)NC(=O)[C@H](Cc1ccccc1)NC(=O)[C@H](CC(=O)O)NC(=O)CNC(=O)[C@H](CC(C)C)NC(=O)[C@@H](N)CC(C)C)C(=O)NCC(=O)N[C@@H](CCCCN)C(=O)N[C@@H](CCC(=O)O)C(=O)N[C@@H](Cc1ccccc1)C(=O)N[C@@H](CCCCN)C(=O)N[C@@H](CCCNC(=N)N)C(=O)N[C@H](C(=O)N[C@H](C(=O)N[C@@H](CCC(N)=O)C(=O)N[C@@H](CCCNC(=N)N)C(=O)N[C@H](C(=O)N[C@@H](CCCCN)C(=O)N[C@@H](CC(=O)O)C(=O)N[C@@H](Cc1ccccc1)C(=O)N[C@@H](CC(C)C)C(=O)N[C@@H](CCCNC(=N)N)C(=O)N[C@@H](CC(N)=O)C(=O)N[C@@H](CC(C)C)C(=O)N[C@H](C(=O)N1CCC[C@H]1C(=O)N[C@@H](CCCNC(=N)N)C(=O)N[C@H](C(=O)N[C@@H](CCC(=O)O)C(=O)N[C@@H](CO)C(=O)O)[C@@H](C)O)C(C)C)[C@@H](C)CC)C(C)C)[C@@H](C)CC` [LL-37, reference compound] the half-life at 0.5 g/L (P. aeruginosa elastase [9]) was 3 min.
In the case of `CC[C@H](C)[C@H](NC(=O)[C@H](CCCN)N=C(N(C)C)N(C)C)C(=O)N[C@@H](CCCN)C(=O)N[C@@H](CCCNC(=N)N)C(=O)N1CCC[C@H]1C(=O)N[C@H](C(=O)N[C@@H](Cc1ccc(O)cc1)C(=O)N[C@@H](CCCN)C(=O)N1CCC[C@H]1C(=O)N[C@@H](CCCNC(=N)N)C(=O)N1CCC[C@H]1C(=O)N[C@@H](CCCNC(=N)N)C(=O)N1CCC[C@H]1C(=O)N1CCC[C@H]1C(=O)N[C@@H](Cc1c[nH]cn1)C(=O)N1CCC[C@H]1C(=O)N[C@@H](CCCNC(=N)N)C(=O)N[C@@H](CC(C)C)C(=O)O)C(C)C` [Api755, gu-OIORPVYOPRPRPPHPRL-OH, reference compound] ({Orn(α-tetramethylguanidino)}-I[Orn]RPVY[Orn]PRPRPPHPRL-OH), the “MIC E. coli ATCC 25922” value [1] is listed as 8 µg/mL (≈ 3.49 µM), the “MIC K. pneumoniae DSM 681” value [2] is listed as 8 µg/mL (≈ 3.49 µM) and the “times more active than Api137 against P. aeruginosa” value [3] is listed as 16.
